This note sets out measurements from publication PMC3798069 (Journal of medicinal chemistry, 2012).

Marks after values point to notes of the source that are not given here.

Common to all, as to type: cell-based
In test [1] the target is wild-type CqsS (Vibrio cholerae serotype O1, UniProt Q9KM66). The conditions noted are these: for QS activity (in words): tested up to 50,000 nM; for maximal % response at the maximum concentration tested: at 50,000 nM, with respect to CAI-1 = 100%.
Test [2] deals with CqsS C170Y (Vibrio cholerae serotype O1, UniProt Q9KM66, C170Y). In words: Light-based agonist bioassay with CqsS C170Y mutant strain. To be noted: at 50,000 nM.
The target in test [3] is CqsS C170A (Vibrio cholerae serotype O1, UniProt Q9KM66, C170A). In words: Light-based agonist bioassay with CqsS C170A mutant strain.

For the molecule `CCCCCCCCO` [1-octanol], the “QS activity (in words)” value in test [1] was “no QS activity”.
The same measure, in the same setting: then `CCC(O)C(=O)O` (stereo not shown) [2-hydroxybutyric acid], with “no QS activity”.
On to `CCCCCCCCCC(=O)[C@@H](O)CC` [compound 1, S-3-hydroxytridecan-4-one, reference compound], for which, in test [2], the “maximal % response at the maximum concentration tested” value (from here on “maximal % response”) was 20 ^c %. In test [3] (with respect to CAI-1 set at 100%), the “% Response (percent maximal bioluminescence)” value was determined as 100±44%.
As to `CCCCCCCCOC(=O)C(O)CC` (stereo not shown) [compound 9, Octyl 2-hydroxybutanoate], in test [2], the “maximal % response” value was 66 ^c %.
On to `CCCCOC(=O)C(O)CC` (stereo not shown) [compound 17, Butyl 2-hydroxybutanoate], for which, in test [1], the “maximal % response” value is recorded as 23 ^c % and the “QS activity (in words)” value is listed as “nearly complete loss of QS activity”.
For `CCCCCCOC(=O)C(O)CC` (stereo not shown) [compound 18, Hexyl 2-hydroxybutanoate], the “fold less active (higher EC50) than C8-ester-CAI-1 (9)” value (shortened to “fold less active”) in test [1] is “greater than 4 fold”.
As to `CCCCCCCOC(=O)C(O)CC` (stereo not shown) [compound 19, Heptyl 2-hydroxybutanoate], the “fold less active” value in test [1] was 2 fold.
As to `CCCCCCCCCOC(=O)C(O)CC` (stereo not shown) [compound 20, Nonyl 2-hydroxybutanoate], in test [1], the “fold more active (lower EC50) than C8-ester-CAI-1 (9)” value amounted to 2 fold.
In the case of `CCCCCCCCCCOC(=O)C(O)CC` (stereo not shown) [compound 21, Decyl 2-hydroxybutanoate], the “fold less active” value in test [1] is “greater than 4 fold”.
`CCCCCOCCOC(=O)C(O)CC` (stereo not shown) [compound 22, 2-(Pentyloxy)ethyl 2-hydroxybutanoate]: the “fold less active” value in test [1] is more than 13 fold.
Regarding `CCOCCOCCOC(=O)C(O)CC` (stereo not shown) [compound 23, 2-Hydroxy-2-(2-ethoxyethoxy)ethylbutanoate], in test [1], the “maximal % response” value was 31 ^c % and the “QS activity (in words)” value was “only minimal QS activity”.
For `CCCCCCOCCOC(=O)C(O)CC` (stereo not shown) [compound 24, 2-(Hexyloxy)ethyl 2-hydroxybutanoate], in test [1], the “fold less active” value is on record as more than 13 fold.
As to `CCCCC/C=C/COC(=O)C(O)CC` (stereo not shown) [compound 26, (E)-Oct-2-en-1-yl 2-hydroxybutanoate], in test [1], the “fold more active (lower EC50) than C8-ester-CAI-1 (9)” value is 3 fold.
`CCCC/C=C/CCOC(=O)C(O)CC` (stereo not shown) [compound 29, (E)-Oct-3-en-1-yl 2-hydroxybutanoate]: the “fold less active” value in test [1] is more than 4 fold.
For the molecule `CCC/C=C/CCCOC(=O)C(O)CC` (stereo not shown) [compound 32, (E)-Oct-4-enyl 2-hydroxybutanoate], in test [1], the “fold less active” value came to 1.5 fold.
With `CC/C=C/CCCCOC(=O)C(O)CC` (stereo not shown) [compound 34, (E)-Oct-5-enyl 2-hydroxybutanoate], in test [1], the “fold less active” value is given as more than 4 fold.
Take `CCC(O)C(=O)OCCCCc1ccccc1` (stereo not shown) [compound 37, 4-Phenylbutyl 2-hydroxybutyrate]: the “maximal % response” value in test [2] is on record as 22 ^c %; in test [3] (at 50,000 nM), 16 ^c %.
Consider `CCC(O)C(=O)OCCCCCc1ccccc1` (stereo not shown) [compound 38, 5-Phenylpentyl 2-hydroxybutyrate], for which the “maximal % response” value in test [2] is 19 ^c %.
In the case of `CCCCc1ccccc1COC(=O)C(O)CC` (stereo not shown) [compound 44, 1-(o-Butyl-phenyl)methyl 2-hydroxybutyrate], in test [1], the “fold less active” value is more than 278 fold and the “QS activity (in words)” value is “very weak responses”.
Turning to `CCCCCc1cccc(COC(=O)C(O)CC)c1` (stereo not shown) [compound 46, 1-(m-Pentyl-phenyl)methyl 2-hydroxybutyrate], the “fold less active” value in test [1] is on record as more than 9 fold.
On to `CCc1ccccc1CCCOC(=O)C(O)CC` (stereo not shown) [compound 49, 3-(o-Ethyl-phenyl)propyl 2-hydroxybutyrate], for which, in test [1], the “fold less active” value is given as more than 278 fold, the “maximal % response” value is reported as 28 ^c % and the “QS activity (in words)” value is recorded as “very weak responses”.
